Key:
Assay type in all cases: in vivo
[1] = tested on: windgrass (Apera spica-venti); test: Test C pre-/postemergence plant response
Outline: (§1)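 Pre- and postemergence treatment, visual 0–100 rating vs controls at 15–25 days.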

[2] = tested on: winter wheat (Triticum aestivum); test: Test C pre-/postemergence plant response
Outline: as §1

wild oat (Avena fatua) = test: Test C pre-/postemergence plant response
Outline: as §1

[3] = tested on: downy bromegrass (Bromus tectorum); test: Test C pre-/postemergence plant response
Outline: as §1

[4] = tested on: spring barley (Hordeum vulgare); test: Test C pre-/postemergence plant response
Outline: as §1

[5] = tested on: Italian ryegrass (Lolium multiflorum); test: Test C pre-/postemergence plant response
Outline: as §1

[6] = tested on: pigweed (Amaranthus retroflexus); test: Test C pre-/postemergence plant response
Outline: as §1

[7] = tested on: blackgrass (Alopecurus myosuroides); test: Test C pre-/postemergence plant response
Outline: as §1

[8] = tested on: annual bluegrass (Poa annua); test: Test C pre-/postemergence plant response
Outline: as §1

[9] = tested on: green foxtail (Setaria viridis); test: Test C pre-/postemergence plant response
Outline: as §1

[10] = tested on: canarygrass (Phalaris minor); test: Test C pre-/postemergence plant response; conditions: Preemergence
Outline: as §1

[11] = tested on: wild mustard (Sinapis arvensis); test: Test C pre-/postemergence plant response
Outline: as §1

[12] = tested on: winter barley (Hordeum vulgare); test: Test C pre-/postemergence plant response
Outline: as §1

[13] = tested on: windgrass (Apera spica-venti); test: Test B postemergence plant response; conditions: Postemergence
Outline: (§2)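 Visual injury score from 0 (none) to 100 (complete control) versus controls, taken 13 to 15 days after treatment in the greenhouse; chemicals applied postemergence, as formulated, to plants of 1- to 4-leaf stage (2 to 18 cm tall); dash denotes no test result.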

[14] = tested on: chickweed (Stellaria media); test: Test B postemergence plant response; conditions: Postemergence
Outline: as §2

[15] = tested on: canarygrass (Phalaris minor); test: Test B postemergence plant response; conditions: Postemergence
Outline: as §2

[16] = tested on: winter barley (Hordeum vulgare); test: Test B postemergence plant response; conditions: Postemergence
Outline: as §2

[17] = Postemergence, 8 g ai/ha, scale 0 to 100, 0 no effect, 100 complete control
[18] = Postemergence, 16 g ai/ha, scale 0 to 100, 0 no effect, 100 complete control
[19] = Postemergence, 31 g ai/ha, scale 0 to 100, 0 no effect, 100 complete control
[20] = Postemergence, 62 g ai/ha, scale 0 to 100, 0 no effect, 100 complete control
[21] = Preemergence, 16 g ai/ha, scale 0 to 100 (0 no effect, 100 complete control)
[22] = Preemergence, 31 g ai/ha, scale 0 to 100 (0 no effect, 100 complete control)
[23] = Preemergence, 62 g ai/ha, scale 0 to 100, 0 no effect, 100 complete control
[24] = Preemergence, 8 g ai/ha, scale 0 to 100 (0 no effect, 100 complete control)
[25] = 31 g ai/ha, scale 0 to 100, 0 no effect, 100 complete control

For `Cc1nn(C)c(=O)c(-n2nc(-c3ccc(Cl)cc3)cc2C)c1O` [Compound 15], the “Plant response rating, Windgrass” value [1, 17] was 0, the “Plant response rating, Windgrass” value [1, 18] was 0 and the “Plant response rating, Windgrass” value [1, 19] was 0. For the same compound, the “Plant response rating, Windgrass” value [1, 20] was 40, the “Plant response rating, Windgrass” value [1, 21] was 25 and the “Plant response rating, Windgrass” value [1, 22] was 75. The “Plant response rating, Windgrass” value [1, 23] was 95, the “Plant response rating, Wheat, Winter” value [2, 17] was 0 and the “Plant response rating, Wheat, Winter” value [2, 18] was 0. For the same compound, the “Plant response rating, Wheat, Winter” value [2, 19] was 0, the “Plant response rating, Wheat, Winter” value [2, 20] was 25 and the “Plant response rating, Wheat, Winter” value [2, 24] was 0. For the same compound, the “Plant response rating, Wheat, Winter” value [2, 21] was 0, the “Plant response rating, Wheat, Winter” value [2, 22] was 20 and the “Plant response rating, Wheat, Winter” value [2, 23] was 25. For the same compound, the “Plant response rating, Oat, Wild” value (wild oat (Avena fatua); [17]) was 0, the “Plant response rating, Oat, Wild” value (wild oat (Avena fatua); [18]) was 25 and the “Plant response rating, Oat, Wild” value (wild oat (Avena fatua); [19]) was 90. For the same compound, the “Plant response rating, Oat, Wild” value (wild oat (Avena fatua); [20]) was 90, the “Plant response rating, Oat, Wild” value (wild oat (Avena fatua); [24]) was 0 and the “Plant response rating, Oat, Wild” value (wild oat (Avena fatua); [22]) was 50. The “Plant response rating, Oat, Wild” value (wild oat (Avena fatua); [23]) was 65, the “Plant response rating, Bromegrass, Downy” value [3, 17] was 0 and the “Plant response rating, Bromegrass, Downy” value [3, 18] was 15. For the same compound, the “Plant response rating, Bromegrass, Downy” value [3, 19] was 20, the “Plant response rating, Bromegrass, Downy” value [3, 20] was 30 and the “Plant response rating, Bromegrass, Downy” value [3, 24] was 0. For the same compound, the “Plant response rating, Bromegrass, Downy” value [3, 21] was 20, the “Plant response rating, Bromegrass, Downy” value [3, 22] was 35 and the “Plant response rating, Bromegrass, Downy” value [3, 23] was 70. For the same compound, the “Plant response rating, Barley, Spring” value [4, 17] was 0, the “Plant response rating, Barley, Spring” value [4, 18] was 0 and the “Plant response rating, Barley, Spring” value [4, 19] was 0. The “Plant response rating, Barley, Spring” value [4, 20] was 50, the “Plant response rating, Barley, Spring” value [4, 24] was 0 and the “Plant response rating, Barley, Spring” value [4, 21] was 0. For the same compound, the “Plant response rating, Barley, Spring” value [4, 22] was 40, the “Plant response rating, Barley, Spring” value [4, 23] was 65 and the “Plant response rating, Ryegrass, Italian” value [5, 17] was 50. The “Plant response rating, Ryegrass, Italian” value [5, 18] was 100, the “Plant response rating, Ryegrass, Italian” value [5, 19] was 100 and the “Plant response rating, Ryegrass, Italian” value [5, 20] was 100. The “Plant response rating, Ryegrass, Italian” value [5, 24] was 15, the “Plant response rating, Ryegrass, Italian” value [5, 21] was 100 and the “Plant response rating, Ryegrass, Italian” value [5, 22] was 100. For the same compound, the “Plant response rating, Ryegrass, Italian” value [5, 23] was 100, the “Plant response rating, Pigweed” value [6, 17] was 0 and the “Plant response rating, Pigweed” value [6, 18] was 0. For the same compound, the “Plant response rating, Pigweed” value [6, 19] was 0, the “Plant response rating, Pigweed” value [6, 20] was 0 and the “Plant response rating, Pigweed” value [6, 24] was 0. For the same compound, the “Plant response rating, Pigweed” value [6, 21] was 0, the “Plant response rating, Pigweed” value [6, 22] was 0 and the “Plant response rating, Pigweed” value [6, 23] was 0. For the same compound, the “Plant response rating, Blackgrass” value [7, 17] was 75, the “Plant response rating, Blackgrass” value [7, 18] was 95 and the “Plant response rating, Blackgrass” value [7, 19] was 98. For the same compound, the “Plant response rating, Blackgrass” value [7, 20] was 100, the “Plant response rating, Blackgrass” value [7, 24] was 70 and the “Plant response rating, Blackgrass” value [7, 21] was 80. The “Plant response rating, Blackgrass” value [7, 22] was 95, the “Plant response rating, Blackgrass” value [7, 23] was 98 and the “Plant response rating, Bluegrass” value [8, 17] was 0. For the same compound, the “Plant response rating, Bluegrass” value [8, 18] was 25, the “Plant response rating, Bluegrass” value [8, 19] was 40 and the “Plant response rating, Bluegrass” value [8, 20] was 50. For the same compound, the “Plant response rating, Bluegrass” value [8, 24] was 40, the “Plant response rating, Bluegrass” value [8, 21] was 60 and the “Plant response rating, Bluegrass” value [8, 22] was 75. The “Plant response rating, Bluegrass” value [8, 23] was 90, the “Plant response rating, Foxtail, Green” value [9, 17] was 90 and the “Plant response rating, Foxtail, Green” value [9, 18] was 95. The “Plant response rating, Foxtail, Green” value [9, 19] was 98, the “Plant response rating, Foxtail, Green” value [9, 20] was 98 and the “Plant response rating, Foxtail, Green” value [9, 24] was 60. The “Plant response rating, Foxtail, Green” value [9, 21] was 98, the “Plant response rating, Foxtail, Green” value [9, 22] was 100 and the “Plant response rating, Foxtail, Green” value [9, 23] was 100. The “Plant response rating, Canarygrass” value ([10]; 8 g ai/ha, scale 0 to 100 (0 no effect, 100 complete control)) was 20, the “Plant response rating, Canarygrass” value ([10]; 16 g ai/ha, scale 0 to 100 (0 no effect, 100 complete control)) was 70 and the “Plant response rating, Canarygrass” value ([10]; 31 g ai/ha, scale 0 to 100 (0 no effect, 100 complete control)) was 80. The “Plant response rating, Canarygrass” value ([10]; 62 g ai/ha, scale 0 to 100, 0 no effect, 100 complete control) was 95, the “Plant response rating, Mustard, Wild” value [11, 17] was 0 and the “Plant response rating, Mustard, Wild” value [11, 18] was 0. The “Plant response rating, Mustard, Wild” value [11, 19] was 0, the “Plant response rating, Mustard, Wild” value [11, 20] was 20 and the “Plant response rating, Mustard, Wild” value [11, 24] was 0. For the same compound, the “Plant response rating, Mustard, Wild” value [11, 21] was 0, the “Plant response rating, Mustard, Wild” value [11, 22] was 0 and the “Plant response rating, Barley, Winter” value [12, 17] was 0. The “Plant response rating, Barley, Winter” value [12, 18] was 0, the “Plant response rating, Barley, Winter” value [12, 19] was 10 and the “Plant response rating, Barley, Winter” value [12, 20] was 90. The “Plant response rating, Barley, Winter” value [12, 24] was 0, the “Plant response rating, Barley, Winter” value [12, 21] was 20 and the “Plant response rating, Barley, Winter” value [12, 22] was 50. For the same compound, the “Plant response rating, Barley, Winter” value [12, 23] was 60, the “Plant response rating, Windgrass” value [13, 25] was 90 and the “Plant response rating, Windgrass” value ([13]; 62 g ai/ha, scale 0 to 100) was 90. For the same compound, the “Plant response rating, Windgrass” value ([13]; 125 g ai/ha, scale 0 to 100) was 100, the “Plant response rating, Windgrass” value ([13]; 250 g ai/ha, scale 0 to 100) was 100 and the “Plant response rating, Chickweed” value [14, 25] was 0. The “Plant response rating, Chickweed” value ([14]; 62 g ai/ha, scale 0 to 100) was 0, the “Plant response rating, Chickweed” value ([14]; 125 g ai/ha, scale 0 to 100) was 0 and the “Plant response rating, Chickweed” value ([14]; 250 g ai/ha, scale 0 to 100) was 0. The “Plant response rating, Canarygrass” value [15, 25] was 35, the “Plant response rating, Canarygrass” value ([15]; 62 g ai/ha, scale 0 to 100) was 35 and the “Plant response rating, Canarygrass” value ([15]; 125 g ai/ha, scale 0 to 100) was 85. The “Plant response rating, Barley” value [16, 25] was 10, the “Plant response rating, Barley” value ([16]; 62 g ai/ha, scale 0 to 100) was 10 and the “Plant response rating, Barley” value ([16]; 125 g ai/ha, scale 0 to 100) was 90.

Source: patent publication US20100267561A1, “HERBICIDAL PYRIDAZINONE DERIVATIVES” (priority 2007, published 2010)
